Data from patent US20260078111A1, “CARBONIC ANHYDRASE ENZYME INHIBITORS AND METHODS OF USE THEREOF” (RUTGERS, THE STATE UNIVERSITY OF NEW JERSEY, priority 2022, published 2026).

Legend:
recombinant human Car1 = recombinant human Car1 (Homo sapiens, UniProt P00915); experiment: Stopped-flow assay of Car1 enzyme inhibition (IC50); assay type: biochemical
Experimental: Stopped-flow: IC50 values were established using an SX20 stopped-flow spectrometer from […]. In one syringe of the SX20, recombinant human Car1 was kept at a concentration of 9 μM in a sodium phosphate buffer and inhibitors were added to this solution at 0 nM, 10 nM, 20 nM, 80 nM and 100 nM. In a second syringe, a saturated CO2 solution was mixed with 0.2 mM phenol red. This series of dilutions allow for the evaluation of how quickly Car1 can metabolize the CO2 in the absence of an inhibitor and for the determination of whether that process is inhibited as increasing concentrations of compounds are added.

[1] = system: mast cell development from murine bone marrow cells; experiment: In vitro mast cell development culture assay (IL-3, flow cytometry); assay type: cell-based, mice
Experimental: To further test the ability of 4-(3-hydroxy-1-(4-methoxybenzyl)-2-oxoindolin-3-yl)benzenesulfonamide to inhibit mast cell development, an established mast cell culture assay was employed (Henry, E. K., et al., J Exp Med, 2016. 213(9): p. 1663-73). As a positive control for mast cell development, bone marrow cells were isolated from the femur of mice and cultured in the presence of 10 ng/mL of IL-3 and vehicle (1:10, DMSO/RPMI complete media) for seven days and mast cells were identified by flow cytometric analysis as (c-Kit+ FceRIa+ CD49b− cells).
In vitro Mast Cell development: Briefly, 1×10^6 bone marrow-resident progenitor cells were isolated from the femur of mice and cultured in complete media supplemented with 10 ng/mL of rIL-3 for a period of […]. Mast cells were identified by their expression of the surface molecules FcεRIα and c-Kit via flow cytometric analysis. In addition to IL-3, cultures were treated with vehicle or increasing concentrations of Car enzyme inhibitors at the indicated concentrations.

[2] = system: intestinal mast cell responses; experiment: Trichinella spiralis-induced mastocytosis model; assay type: in vivo; conditions: 2 mg/day i.p., T. spiralis-infected mice, day 10 post-infection
Excerpt: To address this, a model of Trichinella spiralis-induced mastocytosis was employed and the capacity of MZ and 4-(3-hydroxy-1-(4-methoxybenzyl)-2-oxoindolin-3-yl)benzenesulfonamide to inhibit intestinal mast cell responses was directly compared (Henry, E. K., et al., J Exp Med, 2016. 213(9): p. 1663-73). Briefly, mice were infected with T. spiralis and treated with either vehicle, MZ or 4-(3-hydroxy-1-(4-methoxybenzyl)-2-oxoindolin-3-yl)benzenesulfonamide and intestinal mast cells were quantified via esterase staining and histological analysis (Henry, E. K., et al., J Exp Med, 2016. 213(9): p. 1663-73).
Trichinella spiralis infection: Mice were infected with 500 T. spiralis muscle stage larvae by oral gavage and were treated with vehicle (1:5, DMSO/PBS), 2 mg MZ, or 2 mg 4-(3-hydroxy-1-(4-methoxybenzyl)-2-oxoindolin-3-yl)benzenesulfonamide (CAR0037) i.p. daily; mice were sacrificed between on day 10-post infection and mast cell responses in the small intestine were evaluated by esterase staining as described previously (Henry, E. K., et al., J Exp Med, 2016. 213(9): p. 1663-73).

Chain of recombinant human Car1 (P00915 whole entry): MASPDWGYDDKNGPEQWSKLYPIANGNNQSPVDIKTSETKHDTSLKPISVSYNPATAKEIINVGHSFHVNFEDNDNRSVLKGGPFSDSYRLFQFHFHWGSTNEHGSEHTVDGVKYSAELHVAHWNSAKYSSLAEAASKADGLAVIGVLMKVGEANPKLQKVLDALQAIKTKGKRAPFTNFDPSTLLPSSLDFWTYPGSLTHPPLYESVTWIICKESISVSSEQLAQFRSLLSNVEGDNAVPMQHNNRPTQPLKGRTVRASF

SMILES	IC50 (recombinant human Car1) [nM]	inhibition of mast cell development compared to MZ ([1]; 10 uM, IL-3 10 ng/mL, seven days, versus 126.97 uM MZ)	intestinal mast cell responses post-infection (esterase staining) [2]	mast cell numbers ([1]; 30 μg/mL (126.97 uM), IL-3 10 ng/mL, seven days)	inhibition at 126 µM ([1]; Mus musculus, Mast cell, read-out: POI of control (percent of inhibition based on MC numbers)) [%]
COc1ccc(CN2C(=O)C(O)(c3ccc(S(N)(=O)=O)cc3)c3ccccc32)cc1 (stereo not drawn) [CAR0037, 4-(3-hydroxy-1-(4-methoxybenzyl)-2-oxoindolin-3-yl)benzenesulfonamide]	0.044	inhibited mast cell development as effectively as 126.97 uM of MZ	significantly decreased intestinal mast cell numbers		
CC(=O)/N=c1/sc(S(N)(=O)=O)nn1C [MZ, methazolamide, reference compound]			no changes in mast cell responses	significantly decreased mast cell numbers	78 to 100
